Experimental data taken from ChEMBL document CHEMBL4020795, “One-pot microwave assisted stereoselective synthesis of novel dihydro-2'H-spiro[indene-2,1'-pyrrolo-[3,4-c]pyrrole]-tetraones and evaluation of their antimycobacterial activity and inhibition of AChE” (Bioorg Med Chem Lett, 2017).
pIC50: −log10 of the molar value. In brackets after ≈: the same amount, converted by molar mass.

Columns and labels:
[1] = system: Mycobacterium tuberculosis; assay: Antimicrobial activity against Mycobacterium tuberculosis H37Rv by Alamar blue assay; type: functional
[2] = molecular target: Acetylcholinesterase (Homo sapiens, UniProt P22303); assay: Inhibition of AChE (unknown origin) using […] as substrate preincubated for 15 mins followed by substrate addition measured every minute by spectrophotometric analysis
Chain of Acetylcholinesterase (P22303 whole entry): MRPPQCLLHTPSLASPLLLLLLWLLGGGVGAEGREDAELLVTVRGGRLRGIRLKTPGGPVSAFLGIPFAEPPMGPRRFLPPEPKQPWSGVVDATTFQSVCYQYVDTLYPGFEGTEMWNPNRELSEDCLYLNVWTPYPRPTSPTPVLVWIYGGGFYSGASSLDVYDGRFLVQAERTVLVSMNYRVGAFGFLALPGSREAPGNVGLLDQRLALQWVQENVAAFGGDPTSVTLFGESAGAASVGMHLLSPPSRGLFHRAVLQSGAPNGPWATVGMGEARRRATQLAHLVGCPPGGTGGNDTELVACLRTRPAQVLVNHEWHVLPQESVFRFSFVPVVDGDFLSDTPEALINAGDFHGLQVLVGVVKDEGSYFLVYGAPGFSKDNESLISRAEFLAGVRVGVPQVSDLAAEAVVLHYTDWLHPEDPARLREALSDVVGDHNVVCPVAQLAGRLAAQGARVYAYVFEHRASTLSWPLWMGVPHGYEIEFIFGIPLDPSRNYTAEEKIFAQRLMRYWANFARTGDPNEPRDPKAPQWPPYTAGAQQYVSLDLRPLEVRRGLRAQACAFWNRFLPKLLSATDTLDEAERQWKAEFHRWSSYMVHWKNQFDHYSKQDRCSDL

[3] = system: Vero; assay: Cytotoxicity against monkey Vero cells assessed as decrease in cell viability after 72 hrs by MTT assay; type: cell-based; conditions: Chlorocebus sabaeus
[4] = system: Mycobacterium tuberculosis; assay: Potency index, ratio of cycloserine IC50 to test compound IC50 for Mycobacterium tuberculosis H37Rv; type: functional
[5] = system: Mycobacterium tuberculosis; assay: Potency index, ratio of pyrimethamine IC50 to test compound IC50 for Mycobacterium tuberculosis H37Rv; type: functional

Which results are given for `CN1CC2C(=O)N(Cc3ccccc3)C(=O)C2C12C(=O)c1ccccc1C2=O` (stereo not given)?
pIC50 [1]: 4.26; IC90 [1]: 96.4 µM; MIC [1]: 100 µM (≈ 37.4 µg/mL); pIC50 [2]: 4.39; IC50 [3]: > 6.25 µg/mL

Which results are given for `COc1ccccc1N1C(=O)C2CN(C)C3(C(=O)c4ccccc4C3=O)C2C1=O` (stereo not given)?
pIC50 [1]: 4.55; IC90 [1]: 46.5 µM; MIC [1]: 50 µM (≈ 19.5 µg/mL); pIC50 [2]: 4.95; IC50 [3]: > 6.25 µg/mL

With `CCc1ccc(N2C(=O)C3CN(C)C4(C(=O)c5ccccc5C4=O)C3C2=O)cc1` (stereo not given) as the compound, how does the pIC50 [1] read?
The pIC50 was 4.66.

And the IC90 [1]?
The IC90 was 47.9 µM.

And the MIC [1]?
Its MIC is 50 µM (≈ 19.4 µg/mL).

And the pIC50 [2]?
The pIC50 was 4.35.

And the IC50 [3]?
Its IC50 is greater than 6.25 µg/mL.

What does the source list for `CN1CC2C(=O)N(c3ccc(F)cc3)C(=O)C2C12C(=O)c1ccccc1C2=O` (stereo not given)?
pIC50 [1]: 5.66; IC90 [1]: 7.86 µM; MIC [1]: 50 µM (≈ 18.9 µg/mL); pIC50 [2]: 4.30; IC50 [3]: > 6.25 µg/mL

With `COc1ccc(N2C(=O)C3CN(C)C4(C(=O)c5ccccc5C4=O)C3C2=O)cc1` (stereo not given) as the compound, how does the pIC50 [1] read?
The pIC50 was 4.76.

And the IC90 [1]?
The IC90 was 35.5 µM.

What about the MIC [1] of the same compound?
Its MIC is 50 µM (≈ 19.5 µg/mL).

And the pIC50 [2]?
The pIC50 was 6.11.

What about the IC50 [3] of the same compound?
The IC50 was greater than 6.25 µg/mL.

What does the source list for `CN1CC2C(=O)N(c3ccccc3)C(=O)C2C12C(=O)c1ccccc1C2=O` (stereo not given)?
pIC50 [1]: 4.88; IC90 [1]: 25.9 µM; MIC [1]: 50 µM (≈ 18 µg/mL); pIC50 [2]: 4.16; IC50 [3]: > 6.25 µg/mL

With `CN1CC2C(=O)N(c3cccc(F)c3)C(=O)C2C12C(=O)c1ccccc1C2=O` (stereo not given) as the compound, how does the pIC50 [1] read?
The pIC50 was 4.54.

What about the IC90 [1] of the same compound?
Its IC90 is 47.7 µM.

And the MIC [1]?
Its MIC is 50 µM (≈ 18.9 µg/mL).

What about the pIC50 [2] of the same compound?
The pIC50 was 4.10.

And the IC50 [3]?
Its IC50 is greater than 6.25 µg/mL.

Which results are given for `CN1C(=O)C2CN(C)C3(C(=O)c4ccccc4C3=O)C2C1=O` (stereo not given)?
pIC50 [1]: 4.64; IC90 [1]: 34.6 µM; MIC [1]: 50 µM (≈ 14.9 µg/mL); pIC50 [2]: 5.68; IC50 [3]: > 6.25 µg/mL

With `CN1CC2C(=O)N(C3CCCCC3)C(=O)C2C12C(=O)c1ccccc1C2=O` (stereo not given) as the compound, how does the pIC50 [1] read?
The pIC50 was 4.80.

What about the IC90 [1] of the same compound?
Its IC90 is 34.6 µM.

And the MIC [1]?
Its MIC is 100 µM (≈ 36.6 µg/mL).

What about the pIC50 [2] of the same compound?
The pIC50 was 5.39.

And the IC50 [3]?
Its IC50 is greater than 6.25 µg/mL.

With `Cc1ccc(N2C(=O)C3CN(C)C4(C(=O)c5ccccc5C4=O)C3C2=O)cc1` (stereo not given) as the compound, how does the pIC50 [1] read?
The pIC50 was 4.40.

And the IC90 [1]?
Its IC90 is 71.9 µM.

And the MIC [1]?
The MIC was 100 µM (≈ 37.4 µg/mL).

And the pIC50 [2]?
The pIC50 was 5.13.

What about the IC50 [3] of the same compound?
The IC50 was greater than 6.25 µg/mL.

How did the pIC50 [1] turn out when `CC(C)c1ccc(N2C(=O)C3CN(C)C4(C(=O)c5ccccc5C4=O)C3C2=O)cc1` (stereo not given) was run?
Its pIC50 is 4.55.

What about the IC90 [1] of the same compound?
Its IC90 is 52.4 µM.

What about the MIC [1] of the same compound?
The MIC was 100 µM (≈ 40.2 µg/mL).

What about the pIC50 [2] of the same compound?
The pIC50 was 4.91.

What about the IC50 [3] of the same compound?
The IC50 was greater than 6.25 µg/mL.

What does the source list for `CN1CC2C(=O)N(c3ccc(Br)cc3)C(=O)C2C12C(=O)c1ccccc1C2=O` (stereo not given)?
pIC50 [1]: 4.96; IC90 [1]: 22 µM; MIC [1]: 50 µM (≈ 22 µg/mL); pIC50 [2]: 4.13; IC50 [3]: > 6.25 µg/mL

What does the source list for `CN1CC2C(=O)N(c3ccc(Cl)cc3)C(=O)C2C12C(=O)c1ccccc1C2=O` (stereo not given)?
pIC50 [1]: 5.89; IC90 [1]: 5.3 µM; MIC [1]: 25 µM (≈ 9.87 µg/mL); pIC50 [2]: 4.56; IC50 [3]: > 6.25 µg/mL; Ratio IC50 [4]: 12; Ratio IC50 [5]: 37

`CN1CC2C(=O)N(c3ccc([N+](=O)[O-])cc3)C(=O)C2C12C(=O)c1ccccc1C2=O` (stereo not given) was tested. Which pIC50 [1] did it give?
The pIC50 was 4.33.

And the IC90 [1]?
Its IC90 is 66.5 µM.

What about the MIC [1] of the same compound?
Its MIC is 100 µM (≈ 40.5 µg/mL).

And the pIC50 [2]?
The pIC50 was 5.18.

And the IC50 [3]?
The IC50 was greater than 6.25 µg/mL.

`NCC[C@H](O)C(=O)N[C@@H]1C[C@H](N)[C@@H](O[C@H]2O[C@H](CN)[C@@H](O)[C@H](O)[C@H]2O)[C@H](O)[C@H]1O[C@H]1O[C@H](CO)[C@@H](O)[C@H](N)[C@H]1O` [AMIKACIN] was tested. Which IC90 [1] did it give?
The IC90 was 0.08 µM.

And the MIC [1]?
Its MIC is 0.16 µM (≈ 0.0937 µg/mL).

What about the IC50 [3] of the same compound?
The IC50 was greater than 6.25 µg/mL.

Which results are given for `N[C@@H]1CONC1=O` [CYCLOSERINE]?
MIC [1]: 25 µM (≈ 2.55 µg/mL); IC50 [3]: > 6.25 µg/mL

How did the pIC50 [1] turn out when `CC[C@@H](CO)NCCN[C@@H](CC)CO` [ETHAMBUTOL] was run?
Its pIC50 is greater than 5.81.

And the MIC [1]?
Its MIC is 12.5 µM (≈ 2.55 µg/mL).

What about the IC50 [3] of the same compound?
The IC50 was greater than 6.25 µg/mL.

For `NNC(=O)c1ccncc1` [ISONIAZID], which IC90 [1] is on record?
The IC90 was 0.29 µM.

And the MIC [1]?
Its MIC is 0.31 µM (≈ 0.0425 µg/mL).

And the IC50 [3]?
Its IC50 is greater than 6.25 µg/mL.

For `CCc1nc(N)nc(N)c1-c1ccc(Cl)cc1` [PYRIMETHAMINE], which MIC [1] is on record?
Its MIC is 100 µM (≈ 24.9 µg/mL).

And the IC50 [3]?
Its IC50 is greater than 6.25 µg/mL.
